# Source: patent US12414961B2, “Substituted nucleosides and nucleotides for treating viral infections” (priority 2013, dated 2025)
# pEC50: −log10 of the molar value.
# Legend:
# [1] = test system: Dengue Type 2; assay: Anti-Dengue virus cytoprotection assay, Huh-7 cells; details: Huh-7, read-out: Dengue Type 2 Huh-7 Cells (EC50 uM)
# [2] = Cytotoxicity (CC50) HepG2; details: human, HepG2 cells
# [3] = Cytotoxicity (CC50) Huh-7; details: human, Huh-7 cells
# [4] = Cytotoxicity in Huh-7 cells (Dengue assay); details: human, Huh-7 cells
# [5] = Cytotoxicity (CC50) CEM; details: human, CEM cells
# [6] = test system: Influenza B; assay: Influenza B antiviral assay; format: cell-based; details: Influenza B virus
# [7] = test system: Influenza A H3N2; assay: Influenza A H3N2 antiviral assay; format: cell-based; details: Influenza A virus, H3N2, read-out: Influenza A H3N2 EC50
# [8] = test system: RVFV; assay: microbe, parasite or virus in culture; format: cell-based; details: Rift Valley fever virus, read-out: RVFV EC50
# [9] = test system: Tacaribe Virus; assay: microbe, parasite or virus in culture; format: cell-based, TCRV; details: Mammarenavirus tacaribeense, read-out: Tacaribe Virus EC50
# [10] = test system: Influenza A H1N1; assay: Influenza A H1N1 antiviral assay; format: cell-based; details: Influenza A virus, H1N1, read-out: Influenza A H1N1 EC50
# [11] = test system: RSV; assay: RSV antiviral assay; format: cell-based; details: human respiratory syncytial virus
# [12] = test system: CHIK Virus; assay: CHIK Virus screening assay; format: cell-based, CHIKV; details: Chikungunya virus, read-out: CHIK Virus EC50
# [13] = test system: SARS; assay: microbe, parasite or virus in culture; format: cell-based; details: Severe acute respiratory syndrome coronavirus, read-out: SARS EC50
# [14] = test system: Dengue Virus; assay: Dengue Virus screening assay; format: cell-based, DENV
# [15] = test system: West Nile Virus; assay: West Nile Virus screening assay; format: cell-based, WNV; details: read-out: West Nile Virus EC50
# [16] = test system: VEEV; assay: microbe, parasite or virus in culture; format: cell-based; details: Venezuelan equine encephalitis virus, read-out: VEEV EC50
# [17] = test system: Measles; assay: Measles antiviral assay; format: cell-based, Measles virus; details: Measles morbillivirus
# [18] = test system: Influenza A H5N1 (low path); assay: microbe, parasite or virus in culture; format: cell-based; details: H5N1, read-out: Influenza A H5N1 (low path) EC50
# [19] = test system: IEC-6; assay: Cytotoxicity (CC50) IEC-6; format: cell-based; details: IEC-6
# [20] = test system: BxPC3; assay: Cytotoxicity (CC50) BxPC3; details: read-out: Cytotoxicity (CC50 uM) BxPC3; BxPC3
# [21] = test system: HepG2; assay: Cytotoxicity (CC50) HepG2; details: read-out: Cytotoxicity (CC50 uM) HepG2; HepG2
# [22] = test system: A204; assay: Cytotoxicity (CC50) A204; format: cell-based; details: A204
# [23] = test system: Huh-7; assay: Cytotoxicity (CC50) Huh-7; details: read-out: Cytotoxicity (CC50 uM) Huh-7; Huh-7
# [24] = test system: H9c; assay: Cytotoxicity (CC50) H9c; format: cell-based; details: H9c
# [25] = test system: CEM; assay: Cytotoxicity (CC50) CEM; details: read-out: Cytotoxicity (CC50 uM) CEM; CEM
# [26] = test system: GT1b replicon cells; assay: Cytotoxicity in GT1b replicon cells; format: cell-based
# [27] = Cytotoxicity in Vero cells (Dengue assay); details: African green monkey
# [28] = test system: Dengue Type 2; assay: Anti-Dengue virus cytoprotection assay, Vero cells; details: read-out: Dengue Type 2 Vero Cells (EC50 uM)
structure (smiles),measurement,setting,value
CC(C)OC(=O)[C@H](C)NP(=O)(OC[C@@]1(N=[N+]=[N-])O[C@@H](n2ccc(=S)[nH]c2=O)C(O)[C@H]1O)Oc1ccccc1 (stereo partly drawn),EC50,[1],4.82 µM
same,CC50,[2],> 400 µM
same,CC50,[3],> 400 µM
same,CC50,[4],> 100 µM
same,CC50,[5],229 µM
CNc1ccn([C@@H]2O[C@H](CO)[C@H](O)C2F)c(=O)n1 (stereo partly drawn) [EFVX-01853],pEC50,[6],< 4.00
same,pEC50,[7],< 4.00
same,EC50,[8],> 100 µg/mL
same,EC50,[9],> 100 µg/mL
same,pEC50,[10],< 4.00
same,pEC50,[11],< 4.00
same,EC50,[12],> 100 µg/mL
same,pEC50,[13],< 4.00
same,EC50,[14],> 100 µg/mL
same,EC50,[15],> 100 µg/mL
same,EC50,[16],> 100 µg/mL
same,pEC50,[17],< 4.00
same,pEC50,[18],< 4.00
CN(C)c1ccn([C@@H]2O[C@H](CO)[C@H](O)C2F)c(=O)n1 (stereo partly drawn) [EFVX-01854],pEC50,[6],< 4.00
same,pEC50,[7],< 4.00
same,EC50,[8],> 100 µg/mL
same,EC50,[9],> 100 µg/mL
same,pEC50,[10],< 4.00
same,pEC50,[11],< 4.00
same,EC50,[12],> 100 µg/mL
same,pEC50,[13],< 4.00
same,EC50,[14],> 100 µg/mL
same,EC50,[15],> 100 µg/mL
same,EC50,[16],> 100 µg/mL
same,pEC50,[17],< 4.00
same,pEC50,[18],< 4.00
Cc1cn([C@@H]2O[C@H](CO)[C@H](O)C2F)c(=O)nc1N (stereo partly drawn) [EFVX-01855],pEC50,[6],< 4.00
same,pEC50,[7],< 4.00
same,EC50,[8],> 100 µg/mL
same,EC50,[9],> 100 µg/mL
same,pEC50,[10],< 4.00
same,pEC50,[11],< 4.00
same,EC50,[12],> 100 µg/mL
same,pEC50,[13],< 4.00
same,EC50,[14],> 100 µg/mL
same,EC50,[15],> 100 µg/mL
same,EC50,[16],> 100 µg/mL
same,pEC50,[17],< 4.00
same,pEC50,[18],< 4.00
Nc1nc(=O)n([C@@H]2O[C@H](CO)[C@H](O)C2F)cc1CO (stereo partly drawn) [EFVX-01856],pEC50,[6],< 4.00
same,pEC50,[7],< 4.00
same,EC50,[8],> 100 µg/mL
same,EC50,[9],> 100 µg/mL
same,pEC50,[10],< 4.00
same,pEC50,[11],< 4.00
same,EC50,[12],> 100 µg/mL
same,pEC50,[13],< 4.00
same,EC50,[14],> 100 µg/mL
same,EC50,[15],> 100 µg/mL
same,EC50,[16],> 100 µg/mL
same,pEC50,[17],< 4.00
same,pEC50,[18],< 4.00
Nc1ccn([C@@H]2O[C@H](CO)[C@H](O)C2F)c(=S)n1 (stereo partly drawn) [EFVX-01857],pEC50,[6],< 4.00
same,pEC50,[7],< 4.00
same,EC50,[8],> 100 µg/mL
same,EC50,[9],> 100 µg/mL
same,pEC50,[10],< 4.00
same,pEC50,[11],< 4.00
same,EC50,[12],> 100 µg/mL
same,pEC50,[13],< 4.06
same,EC50,[14],> 100 µg/mL
same,EC50,[15],> 100 µg/mL
same,EC50,[16],> 100 µg/mL
same,pEC50,[17],< 4.00
same,pEC50,[18],< 4.00
CC(C)OC(=O)[C@H](C)NP(=O)(OC[C@H]1O[C@@H](n2ccc(=O)[nH]c2=S)[C@](C)(O)C1O)Oc1ccccc1 (stereo partly drawn) [drawing 366],CC50,[19],> 200 µM
same,CC50,[20],> 300 µM
same,CC50,[21],> 400 µM
same,CC50,[22],98 µM
same,CC50,[23],> 400 µM
same,CC50,[24],> 200 µM
same,CC50,[25],> 300 µM
CC(C)OC(=O)[C@H](C)NP(=O)(OC[C@H]1O[C@@H](n2ccc(=O)[nH]c2=S)[C@](C)(O)C1O)Oc1ccccc1 (stereo partly drawn) [drawing 369],CC50,[19],> 200 µM
same,CC50,[20],> 300 µM
same,CC50,[22],98 µM
CC(C)OC(=O)[C@H](C)N[P@](=O)(OC[C@H]1O[C@@H](n2ccc(=O)[nH]c2=S)[C@](C)(O)C1O)Oc1ccccc1 (stereo partly drawn) [drawing 371],CC50,[21],> 400 µM
same,CC50,[23],252 µM
same,CC50,[25],> 400 µM
CC(C)OC(=O)[C@H](C)N[P@](=O)(OC[C@H]1O[C@@H](n2ccc(=O)[nH]c2=O)[C@](C)(F)C1O)Oc1ccccc1 (stereo partly drawn) [drawing 373],CC50,[21],365 µM
same,CC50,[23],279 µM
same,CC50,[25],> 400 µM
CC(C)OC(=O)[C@H](C)NP(=O)(OC[C@H]1O[C@@H](n2ccc(=O)[nH]c2=S)[C@](C)(O)C1O)Oc1ccccc1 (stereo partly drawn) [drawing 383],CC50,[26],> 10 µM
CC(C)OC(=O)[C@H](C)N[P@](=O)(OC[C@H]1O[C@@H](n2ccc(=O)[nH]c2=S)[C@](C)(O)C1O)Oc1ccccc1 (stereo partly drawn) [drawing 384],CC50,[26],> 10 µM
CC(C)OC(=O)[C@H](C)N[P@](=O)(OC[C@H]1O[C@@H](n2ccc(=O)[nH]c2=O)[C@](C)(F)C1O)Oc1ccccc1 (stereo partly drawn) [drawing 385],CC50,[26],> 2 µM
CC(C)OC(=O)[C@H](C)N[P@](=O)(OC[C@H]1O[C@@H](n2ccc(=O)[nH]c2=S)C(C)(O)[C@H]1O)Oc1ccccc1 (stereo partly drawn) [drawing 388],EC50,[1],5.62 µM
same,CC50,[2],> 400 µM
same,CC50,[3],252 µM
same,CC50,[4],> 100 µM
same,CC50,[27],> 100 µM
same,EC50,[28],2.35 µM
same,CC50,[5],> 400 µM
